# pIC50: −log10 of the molar value. Counter-ions that a name gives are not always drawn.
# Target: T1, human recombinant ENPP1 (Homo sapiens, UniProt P22413)
# T1 construct: purchased R & D systems
# T1 sequence (P22413 1-925): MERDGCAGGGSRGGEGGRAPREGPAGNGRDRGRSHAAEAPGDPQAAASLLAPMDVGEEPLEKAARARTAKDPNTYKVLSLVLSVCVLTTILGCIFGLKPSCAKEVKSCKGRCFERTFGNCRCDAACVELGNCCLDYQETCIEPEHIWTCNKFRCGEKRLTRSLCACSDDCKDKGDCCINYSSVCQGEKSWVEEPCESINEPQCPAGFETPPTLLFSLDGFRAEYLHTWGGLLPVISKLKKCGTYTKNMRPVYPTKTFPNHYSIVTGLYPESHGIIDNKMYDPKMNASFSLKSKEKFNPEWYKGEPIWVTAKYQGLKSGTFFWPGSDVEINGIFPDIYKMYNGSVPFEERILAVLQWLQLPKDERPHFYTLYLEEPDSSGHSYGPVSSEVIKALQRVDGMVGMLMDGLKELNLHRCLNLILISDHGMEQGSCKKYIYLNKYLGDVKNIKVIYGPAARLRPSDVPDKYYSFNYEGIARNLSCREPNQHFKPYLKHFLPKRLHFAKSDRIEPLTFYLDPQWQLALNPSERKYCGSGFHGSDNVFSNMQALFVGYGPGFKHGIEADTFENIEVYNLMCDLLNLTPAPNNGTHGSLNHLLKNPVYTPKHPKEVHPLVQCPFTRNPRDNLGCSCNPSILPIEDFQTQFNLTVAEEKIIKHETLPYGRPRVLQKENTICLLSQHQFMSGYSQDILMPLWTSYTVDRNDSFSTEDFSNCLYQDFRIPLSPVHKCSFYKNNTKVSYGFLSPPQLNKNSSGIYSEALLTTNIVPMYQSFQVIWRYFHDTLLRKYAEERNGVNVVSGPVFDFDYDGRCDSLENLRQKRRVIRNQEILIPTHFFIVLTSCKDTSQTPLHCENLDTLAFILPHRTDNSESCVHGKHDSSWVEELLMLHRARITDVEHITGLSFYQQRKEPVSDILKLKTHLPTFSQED
# Test: ENPP1 enzyme assay with cGAMP substrate (AMP-Glo luminescence)
# Format: biochemical
# Conditions: human recombinant ENPP1 3 ng/reaction, cGAMP 5 μM, 37° C. 90 minutes, read-out: Enzymatic activity (ENPP1 IC50)
# Protocol: ENPP1 hydrolyzes nucleotides or nucleotide derivatives to produce nucleoside -5′-monophosphate and pyrophosphate. in addition, ENPP1 hydrolyzes 2′,3′-cGAMP to produce 5′-adenosine monophosphate (AMP) and 5′-guanosine monophosphate (GMP). AMP produced from the reaction is measured using the AMP-Glo® kit (Promega). The AMP-Glo® kit contains two reagents. The first reagent terminates the AMP-producing enzymatic reaction, removes ATP and converts the produced AMP into ADP. The second reagent converts ADP to ATP which is used to generate luminescence in the luciferase reaction. The amount of luminescence measured is proportional to the amount of AMP produced by ENPP1.
# The final reaction mixture contains 50 mM Tris (pH 8.5) buffer, 250 mM NaCl, 0.5 mM. CaCl2, 1 μM ZnCl2, 5% glycerol and 1% DMSO. […] The reaction was initiated by addition of cGAMP (at a final concentration of 5 μM) and reacted at 37° C. for 90 minutes. At the end of the reaction, 10 μl of the AMP-Glo first reagent was added to stop the reaction and the result was stored at room temperature for […]. After storage, 20 μl of an AMP detection solution (a mixture of AMP-Glo II reagent and Kinase-Gio at a ratio of 1:100) was added and stored at room. temperature for 1 hour. Luminescence signals were measured using a Victor® plate reader (Perkin Elmer). The maximal activity control (containing enzymes and substrates only in the presence of 1% DMSO; MAX) and the minimal activity control (containing substrates and 1% DMSO; MIN) were evaluated simultaneously. In each experiment, serially diluted reference ENPP1 inhibitors were tested together. IC50, indicating % residual activity versus compound concentration was determined by fitting inhibition curves using the 3-parameter analysis of GraphPad Prism® software. Serially diluted samples of one compound were tested two or more times and an average IC50 of each compound was calculated.
row,pIC50,SMILES
1,5.00 to 6.00,"O=c1[nH]nc(-c2ccccc2)c2ccccc12 [Compound No. 1, 4-phenylphthalazin-1(2H)-one]"
2,< 5.00,"CC(C)(C)OC(=O)Nc1cccc(-c2n[nH]c(=O)c3ccccc23)c1 [Compound No. 2, tert-butyl (3-(4-oxo-3,4-dihydrophthalazin-1-yl)phenyl)carbamate]"
3,< 5.00,"Cn1nc(-c2cccc(NC(=O)OC(C)(C)C)c2)c2ccccc2c1=O [Compound No. 3, tert-butyl (3(3-methyl-4-oxo-3,4-dihydrophthalazin-1-yl)phenyl)carbamate]"
4,< 5.00,"CC(C)(C)OC(=O)Nc1cccc(-c2nn(Cc3ccccc3)c(=O)c3ccccc23)c1 [Compound No. 4, tert-butyl (3(3-benzyl-4-oxo-3,4-dihydrophthalazin-1-yl)phenyl)carbamate]"
5,< 5.00,CC(C)(C)OC(=O)NCc1cccc(-c2n[nH]c(=O)c3ccccc23)c1 [Compound No. 5]
6,< 5.00,"Cn1nc(-c2cccc(CNC(=O)OC(C)(C)C)c2)c2ccccc2c1=O [Compound No. 6, tert-butyl 3-(3-methyl-4-oxo-3,4-dihydrophthalazin-1-yl) benzyl carbamate]"
7,< 5.00,Cn1nc(-c2ccc(CNC(=O)OC(C)(C)C)cc2)c2ccccc2c1=O [Compound No. 9]
8,< 5.00,"CCn1nc(-c2ccc(CNC(=O)OC(C)(C)C)cc2)c2ccccc2c1=O [Compound No. 10, tert-butyl (4-(3-ethyl-4-oxo-3,4-dihydrophthalazin-1-yl)benzyl)carbamate]"
9,< 5.00,"CC(C)(C)OC(=O)NCc1ccc(-c2nn(-c3ccccc3)c(=O)c3ccccc23)cc1 [Compound No. 12, tert-butyl (4-(4-oxo-3-phenyl-3,4-dihydrophthalazin-1-yl)benzyl)carbamate]"
10,< 5.00,CC(C)(C)OC(=O)NCc1ccc(-c2nn(Cc3ccccc3)c(=O)c3ccccc23)cc1 [Compound No. 13]
11,< 5.00,"CC(C)(C)OC(=O)NCc1ccc(-c2nn(Cc3ccc(F)cc3)c(=O)c3ccccc23)cc1 [Compound No. 14, tert-butyl (4-(3-(4-fluorobenzyl)-4-oxo-3,4-dihydrophthalazin-1-yl)benzyl)carbamate]"
12,< 5.00,"COc1ccc2c(=O)[nH]nc(-c3ccc(CNC(=O)OC(C)(C)C)cc3)c2c1 [Compound No. 15, tert-butyl (4-(7-methoxy-4-oxo-3,4-dihydrophthalazin-1-yl)benzyl)carbamate]"
13,< 5.00,"COc1ccc2c(-c3ccc(CNC(=O)OC(C)(C)C)cc3)nn(C)c(=O)c2c1 [Compound No. 18, tert-butyl (4-(6-methoxy-3-methyl-4-oxo-3,4-dihydrophthalazin-1-yl)benzyl)carbamate]"
14,< 5.00,"COc1cc2c(-c3ccc(CNC(=O)OC(C)(C)C)cc3)nn(C)c(=O)c2cc1OC [Compound No. 20, tert-butyl (4-(6,7-dimethoxy-3-methyl-4-oxo-3,4-dihydrophthalazin-1-yl)benzyl)carbamate]"
15,< 5.00,"CC(C)(C)OC(=O)NCc1ccc(-c2n[nH]c(=O)c3ccccc23)cc1C(F)(F)F [Compound No. 24, tert-butyl 4-(4-oxo-3,4-dihydrophthalazin-1-yl)-2-(trifluoromethyl)benzyl carbamate]"
16,< 5.00,"CC(C)(C)OC(=O)N1CCc2cc(-c3n[nH]c(=O)c4ccccc34)ccc2C1 [Compound No. 26, tert-butyl 6-(4-oxo-3,4-dihydrophthalazin-1-yl)-3,4-dihydroisoquinoline-2(1H)-carboxylate]"
17,< 5.00,"Cn1nc(-c2ccc3c(c2)CCN(C(=O)OC(C)(C)C)C3)c2ccccc2c1=O [Compound No. 27, tert-butyl-6-(3-methyl-4-oxo-3,4-dihydrophthalazin-1-yl)-3,4-dihydroisoquinoline-2(1H)-carboxylate]"

row,pIC50,SMILES
1,< 5.00,"COc1cc2c(-c3ccc4c(c3)CCN(C(=O)OC(C)(C)C)C4)n[nH]c(=O)c2cc1OC [Compound No. 28, tert-butyl 6-(6,7-dimethoxy-4-oxo-3,4-dihydrophthalazin-1-yl)-3,4-dihydroisoquinoline-2(1H)-carboxylate]"
2,< 5.00,"COc1cc2c(-c3ccc4c(c3)CCN(C(=O)OC(C)(C)C)C4)nn(C)c(=O)c2cc1OC [Compound No. 29, tert-butyl-6-(6,7-dimethoxy-3-methyl-4-oxo-3,4-dihydrophthalazin-1-yl)-3,4-dihydroisoquinoline-2(1H)-carboxylate]"
3,< 5.00,"Nc1cccc(-c2n[nH]c(=O)c3ccccc23)c1 [Compound No. 30, 4-(3-aminophenyl)phthalazin-1(2H)-one hydrochloride]"
4,< 5.00,"Cn1nc(-c2cccc(N)c2)c2ccccc2c1=O [Compound No. 31, 4-(3-aminophenyl)-2-methylphthalazin-1(2H)-one hydrochloride]"
5,< 5.00,"Nc1cccc(-c2nn(Cc3ccccc3)c(=O)c3ccccc23)c1 [Compound No. 32, 4-(3-aminophenyl)-2-benzylphthalazin-1(2H)-one hydrochloride]"
6,< 5.00,"NCc1cccc(-c2n[nH]c(=O)c3ccccc23)c1 [Compound No. 33, 4-(3-(aminomethyl)phenyl)phthalazin-1(2H)-one hydrochloride]"
7,< 5.00,"NCc1cccc(-c2nn(Cc3ccccc3)c(=O)c3ccccc23)c1 [Compound No. 35, 4-(3-(aminomethyl)phenyl)-2-benzylphthalazin-1(2H)-one hydrochloride]"
8,> 6.00,"Cn1nc(-c2ccc(CN)cc2)c2ccccc2c1=O [Compound No. 37, 4-(4-aminomethyl)phenyl)-2-methylphthalazin-1(2H)-one hydrochloride]"
9,> 6.00,"CCn1nc(-c2ccc(CN)cc2)c2ccccc2c1=O [Compound No. 38, 4-(4-(aminomethyl)phenyl)-2-ethylphthalazin-1(2H)-one hydrochloride]"
10,< 5.00,"CC(C)n1nc(-c2ccc(CN)cc2)c2ccccc2c1=O [Compound No. 39, 4-(4-(aminomethyl)phenyl)-2-isopropylphthalazin-1-(2H)-one hydrochloride]"
11,5.00 to 6.00,"NCc1ccc(-c2nn(-c3ccccc3)c(=O)c3ccccc23)cc1 [Compound No. 40, 4-(4-aminomethyl)phenyl)-2-phenylphthalazin-1(2H)-one hydrochloride]"
12,5.00 to 6.00,"NCc1ccc(-c2nn(Cc3ccccc3)c(=O)c3ccccc23)cc1 [Compound No. 41, 4-(4-aminomethyl)phenyl)-2-benzylphthalazin-1(2H)-one hydrochloride]"
13,5.00 to 6.00,"NCc1ccc(-c2nn(Cc3ccc(F)cc3)c(=O)c3ccccc23)cc1 [Compound No. 42, 4-(4-(aminomethyl)phenyl)-2-(4-fluorobenzyl)phthalazin-1(2H)-one hydrochloride]"
14,> 6.00,"COc1ccc2c(=O)[nH]nc(-c3ccc(CN)cc3)c2c1 [Compound No. 43, 4-(4-(aminomethyl)phenyl)-6-methoxyphthalazin-1(2H)-one hydrochloride]"
15,5.00 to 6.00,"COc1ccc2c(=O)n(C)nc(-c3ccc(CN)cc3)c2c1 [Compound No. 44, (4-(7-methoxy-3-methyl-4-oxo-3,4-dihydrophthalazin-1-yl)phenyl)methanaminium chloride]"
16,< 5.00,"COc1ccc2c(-c3ccc(CN)cc3)nn(C)c(=O)c2c1 [Compound No. 46, 4-(4-(aminomethyl)phenyl)-7-methoxy-2-methylphthalazin-1(2H)-one hydrochloride]"
